The values that follow are results of earlier work, collected in US12121558B2 (priority 2019, dated 2024).

Regarding `O=c1c(O)c(-c2ccc(O)c(O)c2)oc2cc(O)cc(O)c12` [quercetin, Quercetin], for the setting “after oral ingestion of quercetin containing foods or supplements”, the elimination half-life was 1 to 2 h. Further, for the setting “in humans, low and highly variable”, the bioavailability was 0-50%.
